Usually melting point stands for the temperature, or range, at which the solid turns liquid.

The source of these data is patent publication US8399493B2, “Pyridinone derivatives and their use as positive allosteric modulators of mGluR2-receptors” (Janssen Pharmaceuticals, Inc., priority 2004, dated 2013).

Molecules are shown by their SMILES. Where a name gives a salt, the structure may show the parent alone.

`O=c1ccc(-c2ccoc2)cn1Cc1ccc(Cl)cc1` [2-59] gave a melting point of 112 to 114 °C.
To `Cc1cc(COc2ccc(-c3ccc(=O)n(Cc4ccc(Cl)cc4F)c3)cc2)no1` [6-63] belongs 135 °C.
With `O=c1ccc(-c2ccc3c(c2)OCO3)cn1Cc1ccc(F)c(F)c1` [6-18] the figure was 181 °C; with `COCc1ccc(-c2ccc(=O)n(Cc3ccc(Cl)cc3)c2)cc1` [2-24], 109 °C.
With `Cc1ccc(-c2ccc(=O)n(Cc3cccc(F)c3)c2)cc1` [6-04] the figure was 112 to 113 °C; with `O=c1ccc(-c2ccc(N3CCOCC3)nc2)cn1Cc1ccc(Cl)cc1` [2-65], 154 °C; with `O=c1ccc(-c2ccc(O)cc2)cn1Cc1ccc(Cl)cc1F` [6-21], 224 °C.
`COc1ccc(Cn2cc(-c3ccc(OC)cc3)ccc2=O)cc1` [4-23] had a melting point of 103 °C.
Consider `CC(=O)NCCOc1ccc(-c2ccc(=O)n(Cc3ccc(Cl)cc3F)c2)cc1` [6-53, N-(2-(4-(1-(4-Chloro-2-fluorobenzyl)-6-oxo-1,6-dihydropyridin-3-yl)phenoxy)ethyl)acetamide], for which the melting point came to 153 °C.
To `COc1ccc(-c2ccc(=O)n(Cc3ccc(Cl)cc3)c2)cc1NS(C)(=O)=O` [2-56, N-(5-(1-(4-Chlorobenzyl)-6-oxo-1,6-dihydropyridin-3-yl)-2-methoxyphenyl)methanesulfonamide] belongs 151 °C; to `NCCOc1ccc(-c2ccc(=O)n(Cc3ccc(Cl)cc3F)c2)cc1` [6-42], 226 °C; to `COc1cccc(C(=O)c2ccc(=O)n(Cc3ccc(Cl)cc3)c2)c1` [3-12, 1-(4-Chlorobenzyl)-5-(3-methoxybenzoyl)pyridin-2(1H)-one], 104 °C.
The compound `CC(C)CCn1cc(-c2cccc(NS(C)(=O)=O)c2)ccc1=O` [8-02, N-(3-(1-Isopentyl-6-oxo-1,6-dihydropyridin-3-yl)phenyl)methane-sulfonamide] displayed a melting point of 159 °C.
The compound `O=c1ccc(-c2ccc(CO)cc2)cn1Cc1ccc(Cl)cc1` [2-14] came in with a melting point of 155 °C.
To `CN(Cc1ccc(=O)n(Cc2ccc(Cl)cc2)c1)c1ccccc1` [3-07, 1-(4-Chlorobenzyl)-5-((methyl(phenyl)amino)methyl)pyridin-1-2(1H)-one] belongs 106 °C.
`COc1ccc(OCc2ccc(=O)n(Cc3ccc(Cl)cc3)c2)cc1` [16-02, 1-(4-Chlorobenzyl)-5-((4-methoxyphenoxy)methyl)pyridin-2(1H)-one] returned a melting point of 114 °C.
Compound `COc1ccc(-c2cc(CO)c(=O)n(Cc3ccc(Cl)cc3)c2)cc1` [9-08, 1-(4-Chlorobenzyl)-3-(hydroxymethyl)-5-(4-methoxyphenyl)pyridin-2(1H)-one] came in with a melting point of 128 °C.
`Cc1ccc(-c2ccc(=O)n(Cc3ccc(Cl)cc3)c2)cc1F` [2-10] showed a melting point of 109 to 112 °C.
With `NCCCOc1ccc(-c2ccc(=O)n(Cc3ccc(Cl)cc3F)c2)cc1` [6-43] the figure was 253 °C.
For `O=c1ccc(-c2nc3ccccc3s2)cn1Cc1ccc(Cl)c(F)c1` [6-19, 1-(4-Chloro-3-fluorobenzyl)-5-(benzo[d]thiazol-2-yl)pyridin-2(1H)-one], the melting point turned out to be 164 °C.
Take `CN(C)CCOc1ccc(-c2ccc(=O)n(Cc3ccc(Cl)cc3F)c2)cc1` [6-44]: the melting point was found to be 85 °C.
In the case of `O=c1ccc(-c2ccc(OCCCN3CCOCC3)cc2)cn1Cc1ccc(Cl)cc1F` [6-48], the melting point stood at 153 °C.
With `O=c1ccc(-c2ccc(OC(F)(F)F)cc2)cn1Cc1ccccc1` [1-20] the figure was 115 °C; with `COc1ccc(-c2ccc(=O)n(Cc3ccc(OC(F)(F)F)cc3)c2)cc1` [4-31], 130 °C; with `N#Cc1ccc(-c2ccc(=O)n(Cc3ccc(F)c(F)c3)c2)cc1` [6-13], 139 °C.
To `N#Cc1cccc(-c2ccc(=O)n(Cc3ccc(Cl)cc3F)c2)c1` [6-25] belongs 140 °C; to `O=c1ccc(-c2ccc(CO)cc2)cn1Cc1ccc(Cl)cc1F` [6-26], 176 °C.
As to `COc1ccc(-c2ccc(=O)n(Cc3ccccc3Cl)c2)cc1` [4-18], the melting point was found to be 125 °C.
To `COc1ccc(-c2ccc(=O)n(Cc3ccccc3C)c2)cc1` [4-05] belongs 122 °C; to `COc1ccc(-c2ccc(=O)n(Cc3ccc(C)c(F)c3)c2)cc1` [4-36], 98 to 100 °C; to `COc1ccc(-c2ccc(=O)n(Cc3ccccc3)c2)cc1OC` [1-19], 120 °C.
To `COc1ccc(-c2ccc(=O)n(Cc3ccc(C(F)(F)F)cc3F)c2)cc1` [4-34] belongs 131 to 134 °C; to `CS(=O)(=O)c1ccc(-c2ccc(=O)n(Cc3ccc(Cl)cc3)c2)cc1` [2-54], 199 to 200 °C; to `NCc1ccc(-c2ccc(=O)n(Cc3ccc(Cl)cc3F)c2)cc1` [6-24], 139 °C.
Consider `COc1ccc(-c2ccc(=O)n(Cc3ccc(OC)nc3)c2)cc1` (as salt: HCl) [4-46], for which the melting point was determined as 126 °C.
`O=c1ccc(-c2ccc3cccnc3c2)cn1Cc1ccc(Cl)cc1` [2-71] returned a melting point of 261 °C.
With `CN(C)c1ccc(-c2ccc(=O)n(Cc3ccc(Cl)cc3)c2)cn1` [2-64] the figure was 164 °C; with `O=c1ccc(-c2ccc(S(=O)(=O)N3CCCC3)cc2)cn1Cc1ccc(Cl)cc1F` [6-75], 177 °C; with `COc1ccc(-c2ccc(=O)n(Cc3ccc(C(F)(F)F)nc3)c2)cn1` [6-80], 160 °C.
To `O=c1ccc(-c2ccc(C(F)(F)F)cc2)cn1Cc1ccc(Cl)cc1F` [6-27] belongs 127 °C; to `C=Cc1ccc(-c2ccc(=O)n(Cc3ccc(Cl)cc3)c2)cc1` [2-06], 125 °C.
With `COc1ccc(-c2ccc(=O)n(Cc3ccccc3)c2)cn1` [1-29] the figure was 180 to 181 °C.
As to `COC(=O)COc1ccc(-c2ccc(=O)n(Cc3ccc(Cl)cc3F)c2)cc1` [6-41], the melting point worked out at 119 °C.
With `N#Cc1ccc(-c2ccc(=O)n(Cc3ccccc3)c2)cc1` [1-25] the figure was 131 °C; with `COc1ccc(Cn2cc(-c3ccc(C#N)cc3)ccc2=O)cc1` [6-77], 134 °C; with `COc1ccc(-c2ccc(=O)n(Cc3c(F)cc(F)cc3F)c2)cc1` [4-17], 112 °C.
To `COc1ccc(Cn2cc(-c3ccc(C(C)=O)cc3)ccc2=O)cc1` [6-76] belongs 97 °C; to `CCC(C)c1ccc(-c2ccc(=O)n(Cc3ccc(Cl)cc3)c2)cc1` (centres unmarked) [2-05], 73 °C; to `Cn1ccc2cc(-c3ccc(=O)n(Cc4ccc(Cl)cc4)c3)ccc21` [2-68], 144 to 147 °C.
With `CN(C)c1ccc(-c2ccc(=O)n(Cc3ccccc3)c2)cc1` [1-26] the figure was 153 °C; with `O=c1ccc(-c2ccc(CCCO)cc2)cn1Cc1ccc(Cl)cc1` [2-16, 1-(4-Chlorobenzyl)-5-(4-(3-hydroxypropyl)phenyl)pyridin-2(1H)-one], 165 °C.
For the compound `COc1ccc(-c2ccc(=O)n(Cc3ccc(Cl)cc3F)c2)cn1` [6-51, 1-(4-Chloro-2-fluorobenzyl)-5-(6-methoxypyridin-3-yl)pyridin-2(1H)-one], the melting point was 136 °C.
With `COc1ccc(-c2ccc(=O)n(Cc3nc(-c4ccc(F)cc4)no3)c2)cc1` [4-42, 1-((3-(4-Fluorophenyl)-1,2,4-oxadiazol-5-yl)methyl)-5-(4-methoxyphenyl)pyridin-2(1H)-one] the figure was 123 °C; with `CCCOc1ccc(-c2ccc(=O)n(Cc3ccccc3)c2)cc1` [1-17], 88 °C.
The compound `CC(=O)N(CCOc1ccc(-c2ccc(=O)n(Cc3ccc(Cl)cc3F)c2)cc1)C(C)=O` [6-55] had a melting point of 121 °C.
With `COc1ccc(-c2ccc(=O)n(Cc3ccc4ccccc4c3)c2)cc1` [4-38] the figure was 145 to 148 °C.
`O=c1ccc(-c2ccc3c(c2)CCO3)cn1Cc1ccc(Cl)cc1` [2-69] came in with a melting point of 119 °C.
The compound `O=c1ccc(Br)cn1Cc1ccc(Cl)cc1F` [6-20] gave a melting point of 102 °C.
To `COCc1ccc(-c2ccc(=O)n(Cc3ccc(F)c(F)c3)c2)cc1` [6-11] belongs 85 °C; to `CC(C)COc1ccc(-c2ccc(=O)n(Cc3ccccc3)c2)cc1` [1-18], 110 °C.
In the case of `COc1ccc(-c2ccc(=O)n(Cc3ccc(C(F)(F)F)c(F)c3)c2)cc1` [4-35], the melting point is 82 to 84 °C.
For `CC(=O)NCc1cccc(-c2ccc(=O)n(Cc3ccc(Cl)cc3F)c2)c1` [6-60], the melting point worked out at 143 °C.
The compound `COC(=O)c1ccc(Cn2cc(-c3ccc(OC)cc3)ccc2=O)cc1` [4-27] gave a melting point of 147 to 150 °C.
As for `CC(=O)Nc1ccc(-c2ccc(=O)n(Cc3ccc(Cl)cc3F)c2)cc1` [6-58], the melting point came out at 230 °C.
To `CN(C)C(=O)Cc1ccc(-c2ccc(=O)n(Cc3ccc(Cl)cc3)c2)cc1` [2-45] belongs 161 °C.
To `O=c1ccc(-c2cccs2)cn1Cc1ccc(F)c(F)c1` [6-15] belongs 96 °C; to `COc1ccc(-c2ccc(=O)n(Cc3cc(C)on3)c2)cc1` [4-40], 100 to 102 °C.
The compound `COc1ncc(-c2ccc(=O)n(Cc3ccc(Cl)cc3)c2)cn1` [2-66] showed a melting point of 191 °C.
Regarding `CCOC(=O)c1ccc(-c2ccc(=O)n(Cc3ccccc3)c2)cc1` [1-24], the melting point is 115 °C.
In turn, `COc1ccc(-c2ccc(=O)n(Cc3ccc(F)cc3)c2)cc1` [4-10] had a melting point of 103 °C.
With `CCCOc1ccc(-c2ccc(=O)n(Cc3ccc(Cl)cc3F)c2)cc1` [6-32] the figure was 107 °C.
With `O=c1ccc(-c2ccc(COCc3ccccc3)cc2)cn1Cc1ccc(Cl)cc1` [2-27] the figure was 101 °C.
For `O=c1ccc(-c2ccc(-c3nnn[nH]3)cc2)cn1Cc1ccc(Cl)cc1F` [6-68], the melting point came to 241 °C.
With `Cc1ccc(-c2ccc(=O)n(Cc3ccc(Cl)cc3)c2)s1` [2-60] the figure was 101 °C.
